Assay results taken from article PMC3590142 (PLoS ONE, 2013).

T1: RFT-1 (rft-1, Y47D7A.16) (Caenorhabditis elegans, UniProt Q3LFN0)
T1 construct: full-length 1,284 nt cDNA with corrected 3' end (differs from the older gene model) in pCI-neo; untagged; transient expression in human ARPE-19 cells; 11 predicted TM domains
T1 sequence (Q3LFN0 1-427): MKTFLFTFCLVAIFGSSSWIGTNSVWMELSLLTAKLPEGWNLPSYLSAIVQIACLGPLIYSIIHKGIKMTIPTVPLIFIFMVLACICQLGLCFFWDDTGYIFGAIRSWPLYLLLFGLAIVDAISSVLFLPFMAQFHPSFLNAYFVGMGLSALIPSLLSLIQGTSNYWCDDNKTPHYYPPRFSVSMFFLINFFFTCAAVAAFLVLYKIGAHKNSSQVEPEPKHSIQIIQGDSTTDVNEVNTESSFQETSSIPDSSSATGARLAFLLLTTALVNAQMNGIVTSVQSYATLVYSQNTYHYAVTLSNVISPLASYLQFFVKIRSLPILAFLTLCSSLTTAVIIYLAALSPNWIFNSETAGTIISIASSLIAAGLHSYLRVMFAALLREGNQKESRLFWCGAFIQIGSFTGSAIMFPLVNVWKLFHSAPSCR

T2: RFT-2 (rft-2, Y47D7A.14) (Caenorhabditis elegans, UniProt G4SDH4)
T2 construct: full-length cDNA in pCI-neo; untagged; transient expression in human ARPE-19 cells
T2 sequence (G4SDH4 1-476): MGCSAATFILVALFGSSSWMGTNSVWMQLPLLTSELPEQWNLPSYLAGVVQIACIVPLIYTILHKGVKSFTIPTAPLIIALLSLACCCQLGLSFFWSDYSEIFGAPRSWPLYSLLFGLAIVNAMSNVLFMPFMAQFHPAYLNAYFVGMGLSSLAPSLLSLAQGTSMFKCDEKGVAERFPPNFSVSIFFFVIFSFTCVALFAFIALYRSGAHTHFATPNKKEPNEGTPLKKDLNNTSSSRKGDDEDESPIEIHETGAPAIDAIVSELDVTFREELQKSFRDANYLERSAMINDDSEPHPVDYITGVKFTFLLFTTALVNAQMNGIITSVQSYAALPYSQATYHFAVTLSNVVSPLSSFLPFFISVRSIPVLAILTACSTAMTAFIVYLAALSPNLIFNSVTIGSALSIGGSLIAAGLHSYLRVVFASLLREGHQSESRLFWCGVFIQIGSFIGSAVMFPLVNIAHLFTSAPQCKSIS


What was measured:
[1] = biological target: T1, RFT-1 (rft-1, Y47D7A.16); test: inhibition of [3H]riboflavin uptake, transfected ARPE-19 cells, empty-vector uptake subtracted; type: cell-based; conditions: competition with [3H]riboflavin; 37°C, 5 min, Krebs-Ringer buffer
[2] = biological target: T2, RFT-2 (rft-2, Y47D7A.14); test: [3H]riboflavin uptake, transfected ARPE-19 cells, empty-vector uptake subtracted; conditions: 14 nM [3H]riboflavin, pH 5.5, 37°C, 5 min, Krebs-Ringer buffer; labelled compound
[3] = substrate: Cc1cc2nc3c(=O)[nH]c(=O)nc-3n(C[C@H](O)[C@H](O)[C@H](O)CO)c2cc1C; test: cells, lysate or membranes; conditions: 0.01–10 µM riboflavin, 37°C, 5 min, Krebs-Ringer buffer, labelled compound

Row | Molecule | inhibition of [3H]riboflavin uptake, transfected ARPE-19 cells, empty-vector upt [1] | other results
1 | Cc1cc2nc3[nH]c(=O)[nH]c(=O)c3nc2cc1C [lumichrome] | structural analogues lumichrome and lumiflavin significantly inhibited [^3H] riboflavin uptake | 
2 | Cc1cc2nc3c(=O)[nH]c(=O)nc-3n(C)c2cc1C [lumiflavin] | structural analogues lumichrome and lumiflavin significantly inhibited [^3H] riboflavin uptake | 
3 | Cc1cc2nc3c(=O)[nH]c(=O)nc-3n(C[C@H](O)[C@H](O)[C@H](O)CO)c2cc1C [riboflavin] |  | [3H]riboflavin uptake, transfected ARPE-19 cells, empty-vector uptake subtracted [2]: rft-2 transfected cells also had significantly higher riboflavin uptake compared to controls
4 | RFT-1 (rft-1, Y47D7A.16) (Caenorhabditis elegans) (protein) MKTFLFTFCLVAIFGSSSWIGTNSVWMELSLLTAKLPEGWNLPSYLSAIVQIACLGPLIYSIIHKGIKMTIPTVPLIFIFMVLACICQLGLCFFWDDTGYIFGAIRSWPLYLLLFGLAIVDAISSVLFLPFMAQFHPSFLNAYFVGMGLSALIPSLLSLIQGTSNYWCDDNKTPHYYPPRFSVSMFFLINFFFTCAAVAAFLVLYKIGAHKNSSQVEPEPKHSIQIIQGDSTTDVNEVNTESSFQETSSIPDSSSATGARLAFLLLTTALVNAQMNGIVTSVQSYATLVYSQNTYHYAVTLSNVISPLASYLQFFVKIRSLPILAFLTLCSSLTTAVIIYLAALSPNWIFNSETAGTIISIASSLIAAGLHSYLRVMFAALLREGNQKESRLFWCGAFIQIGSFTGSAIMFPLVNVWKLFHSAPSCR |  | Km [3]: 1.4 ± 0.5 µM
